Data on six molecules can be found in patent US7964725B2, “Heteroarylbenzamide derivatives for use in the treatment of diabetes” (AstraZeneca AB, priority 2006, dated 2011).

The structures appear in SMILES notation.

System in one data set: not given
Assay: not given
Settings: not given
As to `Cc1cnc(NC(=O)c2cc(Oc3cnc(C(=O)N(C)C)cn3)cc(O[C@@H](C)COC(F)F)c2)cn1` [Example 2, 5-[3-[(2S)-1-(difluoromethoxy)propan-2-yl]oxy-5-[(5-methylpyrazin-2-yl)carbamoyl]phenoxy]-N,N-dimethyl-pyrazine-2-carboxamide], the melting point was ~ 75 °C.

The next data set deals with T1, recombinant human pancreatic GLK (Homo sapiens, UniProt P35557).
T1 construct: 6-His (N); made in house; host or cells: E. coli BL21
T1 sequence (P35557 1-465): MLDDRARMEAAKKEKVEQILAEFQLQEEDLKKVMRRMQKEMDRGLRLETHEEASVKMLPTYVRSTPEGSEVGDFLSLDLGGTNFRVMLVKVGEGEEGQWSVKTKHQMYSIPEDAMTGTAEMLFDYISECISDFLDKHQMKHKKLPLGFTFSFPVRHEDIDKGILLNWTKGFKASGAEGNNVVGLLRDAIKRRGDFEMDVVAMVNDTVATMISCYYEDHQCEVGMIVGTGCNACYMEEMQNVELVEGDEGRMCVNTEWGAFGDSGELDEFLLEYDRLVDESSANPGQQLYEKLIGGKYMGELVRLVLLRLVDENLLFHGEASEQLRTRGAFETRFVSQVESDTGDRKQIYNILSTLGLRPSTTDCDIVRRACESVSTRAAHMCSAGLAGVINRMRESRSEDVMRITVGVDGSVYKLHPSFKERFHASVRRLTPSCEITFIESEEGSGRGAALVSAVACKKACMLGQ
In words: Enzymatic activity: activation of glucokinase in the absence of GLKRP. The note with it: G-6-P dehydrogenase NADP/NADPH coupled assay, OD 340 nm. The format is biochemical. The method, then: Enzymatic activity of recombinant human pancreatic GLK may be measured by incubating GLK, ATP and glucose. The rate of product formation may be determined by coupling the assay to a G-6-P dehydrogenase, NADP/NADPH system and measuring the linear increase with time of optical density at 340 nm Brocklehurst et al (Diabetes 2004, 53, 535-541). Activation of GLK by compounds can be assessed using this assay in the presence or absence of GLKRP as described in Brocklehurst et al (Diabetes 2004, 53, 535-541).
Human GLK and GLKRP cDNA was obtained by PCR from human pancreatic and hepatic mRNA respectively, using established techniques described in Sambrook J, Fritsch E F & Maniatis T, 1989. PCR primers were designed according to the GLK and GLKRP cDNA sequences shown in Tanizawa et al., Proc Natl Acad Sci 1991 August 15; 88(16):7294-7 and Warner et al., Mamm Genome. 1995 August; 6(8):532-6.
GLK was expressed from the vector pTB375NBSE in E. coli BL21 cells, producing a recombinant protein containing a 6-His tag immediately adjacent to the N-terminal methionine. Alternatively, another suitable vector is pET21(+)DNA, Novagen, Cat number 697703. The 6-His tag was used to allow purification of the recombinant protein on a column packed with nickel-nitrilotriacetic acid agarose purchased from Qiagen (cat no 30250).
On to `Cc1cnc(NC(=O)c2cc(Oc3ccc(S(C)(=O)=O)nc3)cc(O[C@@H](C)COC(F)F)c2)cn1` [Example 1, 3-[(2S)-1-(difluoromethoxy)propan-2-yl]oxy-N-(5-methylpyrazin-2-yl)-5-(6-methylsulfonylpyridin-3-yl)oxy-benzamide], for which the EC50 (commonly the concentration at which the effect is half-maximal) came out at 69 nM.

For `Cc1cnc(NC(=O)c2cc(Oc3cnc(C(=O)N(C)C)cn3)cc(O[C@@H](C)COC(F)F)c2)cn1` [Example 2, 5-[3-[(2S)-1-(difluoromethoxy)propan-2-yl]oxy-5-[(5-methylpyrazin-2-yl)carbamoyl]phenoxy]-N,N-dimethyl-pyrazine-2-carboxamide], the EC50 amounted to 55 nM.

Consider `C[C@@H](COC(F)F)Oc1cc(Oc2cnc(C(=O)N(C)C)cn2)cc(C(=O)Nc2cc[nH]n2)c1` [Example 3, 5-[3-[(2S)-1-(Difluoromethoxy)propan-2-yl]oxy-5-(1H-pyrazol-3-ylcarbamoyl)phenoxy]-N,N-dimethyl-pyrazine-2-carboxamide], for which the concentration giving a half-maximal response (EC50) is 65 nM.

As for `C[C@@H](COC(F)F)Oc1cc(Oc2ccc(S(C)(=O)=O)nc2)cc(C(=O)Nc2cc[nH]n2)c1` [Example 4, 3-[(2S)-1-(difluoromethoxy)propan-2-yl]oxy-5-(6-methylsulfonylpyridin-3-yl)oxy-N-(1H-pyrazol-3-yl)benzamide], the EC50 is 33 nM.

Turning to `C[C@@H](COC(F)F)Oc1cc(Oc2cnc(C(=O)N(C)C)cn2)cc(C(=O)Nc2ccn(C)n2)c1` [Example 5, 5-[3-[(2S)-1-(difluoromethoxy)propan-2-yl]oxy-5-[(1-methylpyrazol-3-yl)carbamoyl]phenoxy]-N,N-dimethyl-pyrazine-2-carboxamide], the EC50 stood at 79 nM.

Regarding `C[C@@H](COC(F)F)Oc1cc(Oc2ccc(S(C)(=O)=O)nc2)cc(C(=O)Nc2ccn(C)n2)c1` [Example 6, 3-[(2S)-1-(difluoromethoxy)propan-2-yl]oxy-N-(1-methylpyrazol-3-yl)-5-(6-methylsulfonylpyridin-3-yl)oxy-benzamide], the EC50 came out at 77 nM.
